Experimental findings from patent publication US20250376662A1, “FORWARD PROGRAMMED BLOOD-BRAIN BARRIER MODEL” (priority 2024, published 2025) are described below.

The structures appear in SMILES notation.

The experiment relates to HUVECs. The experiment in a line: Gene expression in HUVECs treated with KLF2 lentivirus and CHIR99021. The format is cell-based, human. As for the experimental part: RNA was extracted using Direct-zol RNA Miniprep kit (Zymo, R2050). Reverse transcription was performed to obtain cDNA using GoScript Reverse Transcriptase with Oligo (dT) kit (Promega, A2791). Real-time gene expression analysis was conducted using 25-μl reactions containing SYBR Green PCR Master Mix (Life Technologies, 4309155) along with primers specific for gene of interests (Table 2). PCR was run according to manufacturer protocols on Agilent AriaMX Real-Time PCR system.
Recognizing the strong effect of KLF2 or KLF4 overexpression on BBB gene expression, explored whether activated Wnt signaling impacted the ability of KLF overexpression to modulate BBB gene expression. […] This finding indicates a synergistic effect of these two pathways in inducing BBB gene expression. […] Such shifts in Wnt TF expression have been reported to be correlated with β-catenin levels, and represents higher canonical Wnt activities (Guo et al. 2021). Thus, to further assess the canonical Wnt signaling activation, we used an hPSC Wnt reporter line, H9 7TGP. The engineered 7TGP line expresses GFP under the control of a consensus TCF/LEF binding sequence promoter that reports canonical Wnt/β-catenin signaling activation (Lian et al. 2012; Fuerer and Nusse 2010). […] To assess whether these factors induce BBB gene expression in primary EC, we treated.

`Cc1c[nH]c(-c2cnc(NCCNc3ccc(C#N)cn3)nc2-c2ccc(Cl)cc2Cl)n1` [CHIR99021]: the “expression of Wnt signaling TF transcripts LEF1 and TCF7” value is reported as “significantly increased the expression”.
